# Results reported in PubChem BioAssay AID686993 (Broad Institute, 2013).
# “And” between values parts separate entries of the source, which are not always exact repeats. Identical values can stand only once. Records with an inconclusive call do not appear. The source made the active and inactive calls.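 How the source made its calls: active means compound whose fitted half-maximal inhibitory dose is at most twice its top valid dose in every replicate test; inconclusive means replicate test calls disagree with one another; inactive means all replicate tests inactive, including opposite-direction effects.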
# Target: UDP-N-acetylbacillosamine N-acetyltransferase PglD (Campylobacter jejuni)
# Test: inhibition of C. jejuni PglD N-acetyltransferase – biochemical, DTNB absorbance, dry powder samples, set 4, dose response (AID 686993)
# Conditions: purified PglD, DTNB absorbance 412 nm, CoA release
row,AC50,SMILES
1,14.6 µM,Cc1c(C(=O)O)sc2nc(/C=C/c3ccc(N)nc3)[nH]c(=O)c12
2,7.23 µM,Cc1c(C(=O)O)sc2nc(/C=C/c3cccc(F)c3)[nH]c(=O)c12
3,11.7 µM and 1.93 µM,Cc1c(C(=O)O)sc2nc(/C=C/c3cccc(O)c3)[nH]c(=O)c12
4,8.04 µM,Cc1c(C(=O)O)sc2nc(/C=C/c3ccccc3)[nH]c(=O)c12

# The next lines start with the molecule.
row,SMILES,AC50
1,Cc1c(C(=O)O)sc2nc(/C=C/c3cccc(C(F)(F)F)c3)[nH]c(=O)c12,29.1 µM
2,Cc1c(C(=O)O)sc2nc(/C=C/c3cc4ccccc4cn3)[nH]c(=O)c12,4.54 µM
3,Cc1c(C(=O)O)sc2nc(/C=C/C=C/c3ccccc3)[nH]c(=O)c12,18.2 µM
4,Cc1c(C(=O)O)sc2nc(/C=C/c3ccc4ccccc4c3)[nH]c(=O)c12,30.5 µM
5,Cc1c(C(=O)O)sc2nc(/C=C/c3ccccn3)[nH]c(=O)c12,2.58 µM
6,Cc1c(C(=O)O)sc2nc(CCc3cccc(O)c3)[nH]c(=O)c12,8.28 µM
7,Cc1c(C(=O)O)sc2nc(/C=C/c3ccc4cc[nH]c4c3)[nH]c(=O)c12,7.87 µM
8,Cc1c(C(=O)O)sc2nc(/C=C/c3ccc4[nH]ccc4c3)[nH]c(=O)c12,3.97 µM
9,Cc1c(C(=O)O)sc2nc(/C=C/c3cccc(C(N)=O)c3)[nH]c(=O)c12,17.6 µM

# Same assay, conditions: purified PglD, DTNB absorbance 412 nm, CoA release; at 10 µM (top of the series)
row,"activity change, negative = inhibition",SMILES
1,inactive,Cc1c(C(=O)O)sc2nc(/C=C/c3ccncc3)[nH]c(=O)c12
2,inactive,Cc1c(C(=O)O)sc2nc(/C=C/c3cnc4ccccc4c3)[nH]c(=O)c12

# Same assay, conditions: purified PglD, DTNB absorbance 412 nm, CoA release; at 38 µM (top of the series)
row,"activity change, negative = inhibition",SMILES
1,inactive,Cc1c(C(=O)O)sc2nc(/C=C/c3cccc(O)c3)[nH]c(=O)c12
2,inactive,Cc1c(C(=O)O)sc2nc(/C=C/C3CC3)[nH]c(=O)c12
3,inactive,Cc1c(C(=O)O)sc2nc(/C=C/c3ccnc4ccccc34)[nH]c(=O)c12
